We go through three molecules from patent US7320878B2, “Protease assay for therapeutic drug monitoring” (Tibotec Pharmaceuticals, Ltd., priority 2001, dated 2008).

The test system of series [1] is α-acid glycoprotein (AAG). As to the kind of experiment: Binding constant (Ka) of the drug to alpha-acid glycoprotein. More on the design: species or system human.
The subject of series [2] is normal human serum proteins. The settings on record: 5 min, 1 μM.
Experimental: To one part of serum sample two parts of MeOH were added, mixed and centrifuged at 16,100 g for 30 min. The supernatant was recovered and can be stored for at least 2 weeks at −20° C. prior to assay. 60 μl is used for the cuvette assay or 24 μl is used for the plate reader assay. Six serial dilutions 1:2 to 1:120 of the extracts, obtained from analyte samples were prepared prior to assay. Methanol extract of normal dog serum without inhibitor was used for the dilution.
For the plate reader assay, the following conditions were used: The buffer was prepared of 50 mM Sodium acetate (NaOAc), pH 4.5, 2 mM dithiothreitol (DTT), 20 mM Sodium Chloride (NaCl), 0.01% Tween 20. The substrate was present at a final concentration of 20 μM in the above buffer. The substrate used is based on a natural substrate for HIV protease. It contains a portion (P4-P4′) of the p17-p24 gag protein. […] The enzyme, wild type HIV-1 protease, was present in the above buffer (50 mM NaOAc, pH4.5, 2 mM DTT, 200 mM NaCl), 0.01% Tween 20) at a final concentration of 4-5 nM. It should be appreciated that other forms of HIV protease can be used as well, including mutant forms of the protease.
The assay is performed at room temperature (RT). […] The reaction was started by adding 88 μl buffer containing substrate and the increase of fluorescence was monitored over time (FIG. 2). […]
Another series relates to plasma protein. Particulars: cited from earlier work.

As for `CC(C)(C)NC(=O)[C@@H]1CN(Cc2cccnc2)CCN1C[C@@H](O)C[C@@H](Cc1ccccc1)C(=O)N[C@H]1c2ccccc2C[C@H]1O` [IDV, indinavir], in series [1], the “Ka for AAG binding” value is recorded as “No binding”.

As to `CC(C)CN(C[C@@H](O)[C@H](Cc1ccccc1)NC(=O)[C@H](CC(N)=O)NC(=O)c1ccc2ccccc2n1)C(=O)NC(C)(C)C` [SC-52151], the “Free/total drug ratio (%), percentage of HIV protease inhibitor in sample not bound to proteins” value in series [2] was found to be 10.5%. In series [1], the “Ka for AAG binding” value is recorded as 2.3 10^6 M^−1.

In the case of `CC(C)(C)NC(=O)[C@@H]1C[C@@H]2CCCC[C@@H]2CN1C[C@@H](O)[C@H](Cc1ccccc1)NC(=O)[C@H](CC(N)=O)NC(=O)c1ccc2ccccc2n1` [saquinavir], the plasma protein bound in the series with plasma protein was 90-99%.
